Inhibition data for 3 compounds are collected here from patent US8426437B2, “Pyrroloquinoline derivatives and their use as protein kinases inhibitors” (Pierre Fabre Medicament, priority 2005, dated 2013).

Holding throughout (type): biochemical
In one assay the target is T1, KDR (h) (Homo sapiens, UniProt P35968).
T1 construct: purchased Upstate
Put plainly: Upstate kinase panel: KDR. The procedure:
(§1) These kinases are produced by Upstate and screened according to the respective protocols indicated by the supplier (http://www.upstate.com/features/kp_protocols.asp). Examples 1, 12, 166 and 238 were tested at a concentration of 20 μM, 10 μM, 1 μM and 1 μM respectively in the presence of 10 μM of ATP for examples 1 and 12 and at the concentrations of ATP shown in parentheses for examples 166 and 238. The results shown in Table VII correspond to percentage inhibition of the kinase tested in the presence of the compound, relative to a control effected without the compound.

The target in the next assay is T2, PKBγ (h) (Homo sapiens, UniProt Q9Y243).
T2 construct: purchased Upstate
Put plainly: Upstate kinase panel: PKBγ. Here is the method: as §1

For the next assay, the target named is T3, cSRC (h) (Homo sapiens, UniProt P12931).
T3 construct: purchased Upstate
Put plainly: Upstate kinase panel: cSRC. Here is the method: as §1

A further assay concerns the target T4, JAK3 (h) (Homo sapiens, UniProt P52333).
T4 construct: purchased Upstate
T4 sequence (P52333 1-1124): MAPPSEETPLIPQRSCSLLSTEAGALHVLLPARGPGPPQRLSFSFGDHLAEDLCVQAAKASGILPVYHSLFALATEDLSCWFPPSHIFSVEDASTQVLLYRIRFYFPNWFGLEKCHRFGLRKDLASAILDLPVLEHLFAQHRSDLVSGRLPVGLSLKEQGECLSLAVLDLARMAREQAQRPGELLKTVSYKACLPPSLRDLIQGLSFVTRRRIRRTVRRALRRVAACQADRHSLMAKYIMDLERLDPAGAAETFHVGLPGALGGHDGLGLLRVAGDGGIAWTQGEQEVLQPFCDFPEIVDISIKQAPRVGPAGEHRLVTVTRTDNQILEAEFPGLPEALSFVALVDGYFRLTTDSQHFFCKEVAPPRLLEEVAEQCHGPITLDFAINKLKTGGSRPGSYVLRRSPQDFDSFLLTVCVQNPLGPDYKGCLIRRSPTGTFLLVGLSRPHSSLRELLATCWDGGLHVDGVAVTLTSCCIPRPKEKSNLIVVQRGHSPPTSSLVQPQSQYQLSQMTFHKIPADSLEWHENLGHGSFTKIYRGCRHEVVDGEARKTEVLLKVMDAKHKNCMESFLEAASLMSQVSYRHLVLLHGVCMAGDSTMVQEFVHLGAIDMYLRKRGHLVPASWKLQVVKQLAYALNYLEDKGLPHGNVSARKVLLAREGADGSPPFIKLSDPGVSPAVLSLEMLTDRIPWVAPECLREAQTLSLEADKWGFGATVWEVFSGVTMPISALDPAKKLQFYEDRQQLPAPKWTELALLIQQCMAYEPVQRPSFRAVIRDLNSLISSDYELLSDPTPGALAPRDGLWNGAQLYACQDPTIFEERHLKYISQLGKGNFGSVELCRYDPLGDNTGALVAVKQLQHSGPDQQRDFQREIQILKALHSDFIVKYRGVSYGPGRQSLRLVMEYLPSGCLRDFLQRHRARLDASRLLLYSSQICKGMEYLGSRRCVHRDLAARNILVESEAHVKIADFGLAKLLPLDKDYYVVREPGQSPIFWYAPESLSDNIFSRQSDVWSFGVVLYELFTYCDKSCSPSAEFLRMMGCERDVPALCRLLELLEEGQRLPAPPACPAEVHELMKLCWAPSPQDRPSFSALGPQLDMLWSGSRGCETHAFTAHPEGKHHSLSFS
Put plainly: Upstate kinase panel: JAK3. Here is the method:
as §1

The next assay deals with T5, Flt3 (h) (Homo sapiens, UniProt P36888).
T5 construct: purchased Upstate
T5 sequence (P36888 27-993): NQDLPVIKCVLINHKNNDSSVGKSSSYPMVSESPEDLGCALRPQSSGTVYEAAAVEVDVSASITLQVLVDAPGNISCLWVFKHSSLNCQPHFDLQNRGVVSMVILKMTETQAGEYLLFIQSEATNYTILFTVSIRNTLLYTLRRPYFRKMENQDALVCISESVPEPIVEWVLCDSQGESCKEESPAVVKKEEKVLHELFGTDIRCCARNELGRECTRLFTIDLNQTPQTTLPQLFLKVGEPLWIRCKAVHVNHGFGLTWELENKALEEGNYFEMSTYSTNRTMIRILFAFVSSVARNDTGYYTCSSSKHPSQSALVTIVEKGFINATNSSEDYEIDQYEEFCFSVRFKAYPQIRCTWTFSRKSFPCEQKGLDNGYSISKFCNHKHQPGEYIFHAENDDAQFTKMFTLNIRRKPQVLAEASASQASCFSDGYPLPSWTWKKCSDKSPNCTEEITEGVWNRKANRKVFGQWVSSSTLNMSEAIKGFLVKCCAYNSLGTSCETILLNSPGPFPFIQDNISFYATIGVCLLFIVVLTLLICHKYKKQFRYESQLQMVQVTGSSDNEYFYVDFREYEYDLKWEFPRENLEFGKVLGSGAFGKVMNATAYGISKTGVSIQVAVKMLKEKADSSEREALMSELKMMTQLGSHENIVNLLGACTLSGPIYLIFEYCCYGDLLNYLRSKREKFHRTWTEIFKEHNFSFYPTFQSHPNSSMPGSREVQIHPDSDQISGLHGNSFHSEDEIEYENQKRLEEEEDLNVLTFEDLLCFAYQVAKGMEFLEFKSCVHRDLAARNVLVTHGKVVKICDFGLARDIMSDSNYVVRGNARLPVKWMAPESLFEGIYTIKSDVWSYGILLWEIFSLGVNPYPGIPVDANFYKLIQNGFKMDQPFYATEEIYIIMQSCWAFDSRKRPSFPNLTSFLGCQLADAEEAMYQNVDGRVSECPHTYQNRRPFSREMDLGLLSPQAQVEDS
Put plainly: Upstate kinase panel: Flt3. The procedure:
as §1

The target in the next assay is T6, PDGFRβ (h) (Homo sapiens, UniProt P09619).
T6 construct: purchased Upstate
Kind of assay: Upstate kinase panel: PDGFRβ. Here is the method:
as §1

Where [1] appears, read: compound 10 μM, 10 μM ATP, read-out: % inhibition at 10 μMol.
Where [2] appears, read: compound 20 μM, 10 μM ATP, read-out: % inhibition at 20 μMol.
Setting [3] is: compound 1 μM, ATP (200), read-out: % inhibition at 1 μMol.

T1 sequence (P35968 20-1356): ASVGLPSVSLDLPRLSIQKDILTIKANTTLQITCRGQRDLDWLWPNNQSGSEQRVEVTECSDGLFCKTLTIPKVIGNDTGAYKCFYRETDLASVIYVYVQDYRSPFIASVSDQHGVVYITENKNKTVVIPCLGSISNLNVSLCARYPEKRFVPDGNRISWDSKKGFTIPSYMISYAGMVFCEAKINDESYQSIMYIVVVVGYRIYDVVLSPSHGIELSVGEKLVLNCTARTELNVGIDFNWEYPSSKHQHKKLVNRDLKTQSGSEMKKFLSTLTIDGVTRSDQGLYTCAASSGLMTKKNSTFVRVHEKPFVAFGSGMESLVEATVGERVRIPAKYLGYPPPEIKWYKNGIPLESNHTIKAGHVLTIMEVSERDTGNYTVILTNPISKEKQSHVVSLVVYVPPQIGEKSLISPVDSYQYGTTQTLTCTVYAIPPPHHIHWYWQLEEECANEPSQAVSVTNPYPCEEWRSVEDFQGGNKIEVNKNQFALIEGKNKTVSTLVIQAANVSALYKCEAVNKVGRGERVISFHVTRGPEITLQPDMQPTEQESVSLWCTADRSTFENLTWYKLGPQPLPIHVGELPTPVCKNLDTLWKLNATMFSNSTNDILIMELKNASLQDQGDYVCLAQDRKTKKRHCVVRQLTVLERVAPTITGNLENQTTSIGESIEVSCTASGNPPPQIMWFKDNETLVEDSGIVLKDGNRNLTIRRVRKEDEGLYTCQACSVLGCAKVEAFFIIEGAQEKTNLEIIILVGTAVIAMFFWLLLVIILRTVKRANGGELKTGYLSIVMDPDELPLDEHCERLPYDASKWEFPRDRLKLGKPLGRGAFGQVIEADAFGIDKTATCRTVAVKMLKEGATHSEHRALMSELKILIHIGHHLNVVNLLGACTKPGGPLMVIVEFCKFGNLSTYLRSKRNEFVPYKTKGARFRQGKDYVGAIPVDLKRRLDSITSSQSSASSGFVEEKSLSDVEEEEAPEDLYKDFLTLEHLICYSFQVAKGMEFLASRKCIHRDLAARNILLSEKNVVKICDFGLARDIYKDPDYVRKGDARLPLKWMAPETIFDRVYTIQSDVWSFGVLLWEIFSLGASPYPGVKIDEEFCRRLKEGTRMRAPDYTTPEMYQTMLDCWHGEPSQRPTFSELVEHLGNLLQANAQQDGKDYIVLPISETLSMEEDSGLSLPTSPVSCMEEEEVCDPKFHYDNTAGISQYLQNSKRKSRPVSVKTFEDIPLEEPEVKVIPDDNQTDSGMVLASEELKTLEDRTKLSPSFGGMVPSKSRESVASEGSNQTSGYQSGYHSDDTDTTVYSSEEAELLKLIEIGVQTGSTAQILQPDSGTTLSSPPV
T2 sequence (Q9Y243 whole entry): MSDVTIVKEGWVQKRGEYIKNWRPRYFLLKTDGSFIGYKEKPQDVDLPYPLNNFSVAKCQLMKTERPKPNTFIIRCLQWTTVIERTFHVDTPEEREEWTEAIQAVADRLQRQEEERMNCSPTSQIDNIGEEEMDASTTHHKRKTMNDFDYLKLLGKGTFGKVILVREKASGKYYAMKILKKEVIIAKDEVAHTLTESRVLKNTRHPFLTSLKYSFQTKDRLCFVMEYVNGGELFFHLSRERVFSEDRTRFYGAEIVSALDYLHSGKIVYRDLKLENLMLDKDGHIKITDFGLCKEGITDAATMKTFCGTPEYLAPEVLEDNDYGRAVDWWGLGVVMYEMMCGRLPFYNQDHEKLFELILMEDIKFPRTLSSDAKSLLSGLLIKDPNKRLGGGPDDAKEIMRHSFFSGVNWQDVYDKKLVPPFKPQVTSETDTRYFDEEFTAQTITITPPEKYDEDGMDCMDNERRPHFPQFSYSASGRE
T3 sequence (P12931 whole entry): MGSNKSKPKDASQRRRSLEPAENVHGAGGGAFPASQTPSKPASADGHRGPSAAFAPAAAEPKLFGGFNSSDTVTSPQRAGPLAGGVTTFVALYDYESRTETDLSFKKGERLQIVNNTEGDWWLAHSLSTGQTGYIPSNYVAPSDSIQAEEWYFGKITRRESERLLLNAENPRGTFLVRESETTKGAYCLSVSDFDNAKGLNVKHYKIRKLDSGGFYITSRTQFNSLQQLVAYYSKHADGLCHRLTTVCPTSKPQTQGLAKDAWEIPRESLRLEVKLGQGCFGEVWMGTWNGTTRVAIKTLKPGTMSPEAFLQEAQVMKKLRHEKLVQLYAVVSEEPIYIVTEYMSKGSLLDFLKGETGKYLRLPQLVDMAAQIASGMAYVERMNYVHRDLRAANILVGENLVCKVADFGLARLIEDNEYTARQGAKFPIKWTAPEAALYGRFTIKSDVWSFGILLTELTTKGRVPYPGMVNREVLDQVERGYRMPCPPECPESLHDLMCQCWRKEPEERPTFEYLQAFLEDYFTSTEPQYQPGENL
T6 sequence (P09619 33-1106): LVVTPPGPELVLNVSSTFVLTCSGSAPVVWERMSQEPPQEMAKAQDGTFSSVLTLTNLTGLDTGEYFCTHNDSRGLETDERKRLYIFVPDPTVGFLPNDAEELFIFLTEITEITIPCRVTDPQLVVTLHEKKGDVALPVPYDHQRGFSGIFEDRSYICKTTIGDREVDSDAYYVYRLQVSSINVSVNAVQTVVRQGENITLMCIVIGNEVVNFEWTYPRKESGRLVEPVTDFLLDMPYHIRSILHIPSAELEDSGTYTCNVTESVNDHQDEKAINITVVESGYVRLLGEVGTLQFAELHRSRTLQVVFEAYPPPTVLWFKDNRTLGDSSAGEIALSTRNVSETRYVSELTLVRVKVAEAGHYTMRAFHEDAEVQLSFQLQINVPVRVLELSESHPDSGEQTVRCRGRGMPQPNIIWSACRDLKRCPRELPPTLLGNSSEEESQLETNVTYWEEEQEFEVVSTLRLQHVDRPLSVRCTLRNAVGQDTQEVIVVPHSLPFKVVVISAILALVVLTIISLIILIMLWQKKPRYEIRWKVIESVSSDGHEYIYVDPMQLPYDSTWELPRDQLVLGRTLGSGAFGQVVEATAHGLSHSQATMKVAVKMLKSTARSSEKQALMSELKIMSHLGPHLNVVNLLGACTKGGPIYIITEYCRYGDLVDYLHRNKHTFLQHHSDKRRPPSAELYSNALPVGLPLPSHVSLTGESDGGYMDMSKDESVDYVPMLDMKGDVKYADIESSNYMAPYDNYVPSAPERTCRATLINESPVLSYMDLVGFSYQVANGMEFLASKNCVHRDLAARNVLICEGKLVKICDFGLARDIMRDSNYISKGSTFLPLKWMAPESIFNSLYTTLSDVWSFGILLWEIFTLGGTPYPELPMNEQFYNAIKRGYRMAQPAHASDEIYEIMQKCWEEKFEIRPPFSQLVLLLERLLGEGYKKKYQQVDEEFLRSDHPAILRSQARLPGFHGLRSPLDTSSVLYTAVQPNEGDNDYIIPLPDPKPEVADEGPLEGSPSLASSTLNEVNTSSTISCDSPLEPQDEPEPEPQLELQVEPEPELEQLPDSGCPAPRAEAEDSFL

One may read the inhibition as the share of the control response that was lost under treatment. Regarding `CCOC(=O)c1c[nH]c2c(=O)[nH]c3ccc(S(=O)(=O)Nc4ccc(F)cc4)cc3c12` [Compound 12, 8-(4-Fluorophenylsulfamoyl)-4-oxo-4,5-dihydro-3H-pyrrolo[2,3-c]quinoline-1-ethyl carboxylate], the inhibition at 10 µM on KDR (h) (setting [1]) is 69%; at PKBγ (h) (setting [1]), 20%; at cSRC (h) (setting [1]), 91%; at JAK3 (h) (setting [1]), 50%; on Flt3 (h) (setting [1]), 51%; on PDGFRβ (h) (setting [1]), 0%.
On to `CCOC(=O)c1c[nH]c2c(=O)[nH]c3ccccc3c12` [Compound 1, 4-Oxo-4,5-dihydro-3H-pyrrolo[2,3-c]quinoline-1-ethyl carboxylate], for which the inhibition at 20 µM was determined as 100% on KDR (h) (setting [2]); 5% at PKBγ (h) (setting [2]); 86% at cSRC (h) (setting [2]); 58% at JAK3 (h) (setting [2]); 91% at Flt3 (h) (setting [2]); 13% at PDGFRβ (h) (setting [2]).
With `CCOC(=O)c1c[nH]c2c(=O)[nH]c3ccc(-c4cccc(S(C)(=O)=O)c4)cc3c12` [Compound 238, 8-(3-Methanesulfonyl-phenyl)-4-oxo-4,5-dihydro-3H-pyrrolo[2,3-c]quinoline-1-ethyl carboxylate], the inhibition at 1 µM on KDR (h) (compound 1 μM, ATP (90), read-out: % inhibition at 1 μMol) was 21%; on PKBγ (h) (setting [3]), 2%; at cSRC (h) (setting [3]) it was 7%; on JAK3 (h) (compound 1 μM, ATP (10), read-out: % inhibition at 1 μMol) it was 5%; at Flt3 (h) (setting [3]), 0%; at PDGFRβ (h) (compound 1 μM, ATP (120), read-out: % inhibition at 1 μMol) it was 0%.
